According to patent publication US20220117938A1, “COMBINATON THERAPY WITH A DON PRODRUG AND AN IMMUNE CHECKPOINT INHIBITOR” (DRACEN PHARMACEUTICALS, INC., priority 2019, published 2022):

Experiments:
Format in all cases: in vivo, mice
[1] = test system: CT26 tumors; experiment: CT26 model, Compound 1 5-day ON 2-day OFF with and without anti-PD-1 (Example 2B, similar experiment, Tables 2B-5/2B-6); conditions: for Cures / Median Survival: 5-day ON 2-day OFF; for Mean Tumor Vol / TGI: Day 15; for BWC: mouse, in vivo
[2] = test system: HCT116 tumors; experiment: Anti-tumor efficacy of Compound 1 in the HCT116 xenograft model (Example 12)
Protocol: Female BALB/c nude mice were inoculated subcutaneously in the right flank with HCT116 cells for tumor development. Nine days after tumor inoculation, mice with tumor sizes ranging from 90-260 mm^3 (average tumor size 155 mm^3) were selected and assigned into groups using stratified randomization with 8 mice per group based upon their tumor volumes. The treatments were started from the day of randomization (defined as D0), Group 1 was treated with Vehicle control, 10 ml/kg, IP, bid×21; Group 4 was treated with Compound 1, 1.4 mg/kg, SC, 5d ON, 2 d OFF×3 cycles; and Group 5 was treated with Compound 1, 3.3 mg/kg, IV, tiw, (Thu, Sat, Mon)×3 cycles. The tumor sizes were measured two times per week during the treatment. The entire study was terminated on D18 after start of the treatment. All treatments were well-tolerated without any adverse effects or significant body weight loss.

[3] = test system: CT26.WT tumors; experiment: Anti-tumor efficacy of Compound 1 in the CT26.WT model: schedule comparison (Example 5); conditions: for Mean Tumor Vol / TGI: Day 14; for Mean Tumor Vol / TGI / Cures / ILS: sc
Protocol: Female BALB/c mice were inoculated subcutaneously at right flank with CT26.WT cells for tumor development. Treatment started on day 6 after tumor inoculation when the tumor size reached 40-79 mm^3 (average tumor size 57 mm^3). Each group consisted of 8 tumor-bearing mice. The tumor sizes were measured three times per week during the treatment. The entire study was terminated on D57 after start of the treatment. Otherwise, the experimental methods and procedures are similar to those described in EXAMPLE 2B.

[4] = 0.15 mg/kg 5-day ON 2-day OFF x 4 cycles
[5] = 0.5 mg/kg 5-day ON 2-day OFF x 4 cycles
[6] = 1.4 mg/kg 5-day ON 2-day OFF x 4 cycles
[7] = Group 4, 1.4 mg/kg SC 5 d ON 2 d OFF x3 cycles
[8] = Group 4, 1.4 mg/kg SC 5 d ON 2 d OFF x3 cycles, day 11
[9] = Group 5, 3.3 mg/kg IV tiw x3 cycles
[10] = Group 5, 3.3 mg/kg IV tiw x3 cycles, day 11
[11] = Group 2: 1.4 mpk 5-days ON 2-days OFF x4 cycles
[12] = Group 3: 1.4 mpk 5-days ON 2-days OFF x2 cycles followed by 3-days ON (Mon-Wed) 4-days OFF x2 cycles
[13] = Group 4: 1.4 mpk 5-days ON 2-days OFF x2 cycles followed by 3-days ON (Mon, Wed, Fri) 4-days OFF x2 cycles
[14] = Group 5: 2.33 mpk 3-days ON (Mon-Wed) 4-days OFF x4 cycles
[15] = Group 6: 2.33 mpk 3-days ON (Mon, Wed, Fri) 4-days OFF x4 cycles
[16] = Group 7: 0.5 mpk 5-days ON 2-days OFF x4 cycles
[17] = Group 8: 0.83 mpk 3-days ON (Mon-Wed) 4-days OFF x4 cycles
[18] = Group 9: 0.83 mpk 3-days ON (Mon, Wed, Fri) 4-days OFF x4 cycles

## CC(=O)N[C@@H](Cc1c[nH]c2ccccc12)C(=O)N[C@@H](CCC(=O)C=[N+]=[N-])C(=O)OC(C)C [Compound 1, Isopropyl (S)-2-((S)-2-acetamido-3-(1H-indol-3-yl)propanamido)-6-diazo-5-oxohexanoate]
[1]; Compound 1 0.15 mg/kg
  Cures: 0%
  Median Survival: 26 days
[1]; Compound 1 0.5 mg/kg
  Cures: 0%
  Median Survival: 36 days
[1]; Compound 1 1.4 mg/kg
  Cures: 0%
  Median Survival: 37 days
[1]; [4]
  Mean Tumor Vol: 188 ± 29 mm^3
  TGI: 76%
[1]; [5]
  Mean Tumor Vol: 150 ± 21 mm^3
  TGI: 88%
[1]; [6]
  Mean Tumor Vol: 106 ± 16 mm^3
  TGI: 91%
[1]; 0.15 mg/kg
  BWC: 7%
[1]; 0.5 mg/kg
  BWC: 1.4%
[1]; 1.4 mg/kg
  BWC: −11%
[2]; [7]
  RTV at day 11: 4.061 ± 0.33
  Tumor Size at day 11: 602 ± 72 mm^3
[2]; Group 4, 1.4 mg/kg SC 5 d ON 2 d OFF x3 cycles, day 0
  Tumor volume: 155 ± 19 mm^3
[2]; Group 4, 1.4 mg/kg SC 5 d ON 2 d OFF x3 cycles, day 4
  Tumor volume: 227 ± 39 mm^3
[2]; Group 4, 1.4 mg/kg SC 5 d ON 2 d OFF x3 cycles, day 7
  Tumor volume: 294 ± 53 mm^3
[2]; [8]
  T/C: 52.25%
  TGI: 53.92%
  Tumor volume: 602 ± 72 mm^3
[2]; Group 4, 1.4 mg/kg SC 5 d ON 2 d OFF x3 cycles, day 14
  Tumor volume: 964 ± 176 mm^3
[2]; [9]
  RTV at day 11: 3.70 ± 0.45
  Tumor Size at day 11: 571 ± 82 mm^3
[2]; Group 5, 3.3 mg/kg IV tiw x3 cycles, day 0
  Tumor volume: 156 ± 19 mm^3
[2]; Group 5, 3.3 mg/kg IV tiw x3 cycles, day 4
  Tumor volume: 188 ± 23 mm^3
[2]; Group 5, 3.3 mg/kg IV tiw x3 cycles, day 7
  Tumor volume: 378 ± 60 mm^3
[2]; [10]
  T/C: 48.17%
  TGI: 57.23%
  Tumor volume: 571 ± 82 mm^3
[2]; Group 5, 3.3 mg/kg IV tiw x3 cycles, day 14
  Tumor volume: 861 ± 134 mm^3
[2]; Group 5, 3.3 mg/kg IV tiw x3 cycles, day 18
  Tumor volume: 1354 ± 204 mm^3
[3]; 1.4 mg/kg 5-day ON 2-day OFF
  ILS (maximum median survival): 106%
[3]; 1.4 mg/kg 5-day ON 2-day OFF, animals cured/animals in group
  Long term cure: 1/8
[3]; 1.4 mg/kg, switching from 5-day ON 2-day OFF to 3-day ON 4-day OFF on Day 14
  Tumor growth inhibition, schedule switch compared to 1.4 mg/kg 5-day ON 2-day OFF×4 cycles: reduced tumor growth inhibition
[3]; 3-day ON 4-day OFF schedules, equivalent total dose per cycle
  Efficacy and survival benefit, Mon-Wed compared with Mon, Wed, Fri dosing: equivalent efficacy and survival benefit
[3]; 5-day ON 2-day OFF schedule, equivalent total dose per cycle, 4 weeks
  Tumor growth inhibition and survival benefit compared to 3-day ON 4-day OFF schedules: superior tumor growth inhibition and survival benefit
[3]; [11]
  Mean Tumor Vol: 163 ± 25 mm^3
  TGI: 92%
  Cures: 12.5%
  ILS: 106%
[3]; [12]
  Mean Tumor Vol: 155 ± 27 mm^3
  TGI: 93%
  Cures: 0%
  ILS: 67%
[3]; [13]
  Mean Tumor Vol: 164 ± 12 mm^3
  TGI: 92%
  Cures: 12.5%
  ILS: 94%
[3]; [14]
  Mean Tumor Vol: 169 ± 32 mm^3
  TGI: 92%
  Cures: 0%
  ILS: 86%
[3]; [15]
  Mean Tumor Vol: 240 ± 45 mm^3
  TGI: 87%
  Cures: 0%
  ILS: 94%
[3]; [16]
  Mean Tumor Vol: 302 ± 41 mm^3
  TGI: 82%
  Cures: 0%
  ILS: 67%
[3]; [17]
  Mean Tumor Vol: 484 ± 87 mm^3
  TGI: 69%
  Cures: 0%
  ILS: 67%
[3]; [18]
  Mean Tumor Vol: 488 ± 74 mm^3
  TGI: 68%
  Cures: 0%
  ILS: 39%
